# Measurements from ChEMBL document CHEMBL1201862, “PubChem BioAssay data set” (2004).
# The source made the active and inactive calls.
# Key:
# [1] = HEp-2 cell cytotoxicity, dose response, cytotoxicity control for RSV inhibitor project, HTS (AID 2410); type: functional; details: human respiratory syncytial virus
# [2] = target: T1, Replicative DNA helicase DnaB (Mycobacterium tuberculosis, UniProt P9WMR3); assay: DnaB intein splicing inhibitors, dose response, biochemical, cell-free fluorescence (AID 449749); type: functional
# T1 sequence (P9WMR3 whole entry): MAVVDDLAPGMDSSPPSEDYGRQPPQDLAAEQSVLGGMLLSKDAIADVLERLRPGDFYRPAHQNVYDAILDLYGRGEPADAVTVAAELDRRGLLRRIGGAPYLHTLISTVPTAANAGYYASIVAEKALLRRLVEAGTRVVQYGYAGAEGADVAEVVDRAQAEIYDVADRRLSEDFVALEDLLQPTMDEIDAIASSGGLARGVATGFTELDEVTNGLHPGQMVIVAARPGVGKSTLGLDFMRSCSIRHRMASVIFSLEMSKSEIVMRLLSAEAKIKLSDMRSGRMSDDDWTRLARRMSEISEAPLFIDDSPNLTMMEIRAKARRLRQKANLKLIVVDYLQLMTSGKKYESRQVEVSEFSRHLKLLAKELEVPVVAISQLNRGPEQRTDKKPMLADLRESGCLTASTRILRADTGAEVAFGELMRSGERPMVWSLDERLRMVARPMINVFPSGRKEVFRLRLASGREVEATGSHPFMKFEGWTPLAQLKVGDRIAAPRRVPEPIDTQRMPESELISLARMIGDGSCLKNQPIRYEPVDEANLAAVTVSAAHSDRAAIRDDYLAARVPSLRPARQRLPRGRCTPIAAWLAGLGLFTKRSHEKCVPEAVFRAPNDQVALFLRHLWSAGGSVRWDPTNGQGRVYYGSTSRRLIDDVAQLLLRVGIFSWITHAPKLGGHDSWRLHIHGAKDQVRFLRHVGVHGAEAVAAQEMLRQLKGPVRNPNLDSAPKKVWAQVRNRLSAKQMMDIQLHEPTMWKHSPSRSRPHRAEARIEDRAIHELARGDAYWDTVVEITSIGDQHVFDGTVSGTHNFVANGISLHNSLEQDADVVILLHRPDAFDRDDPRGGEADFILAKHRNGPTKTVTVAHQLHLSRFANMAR
# Protein RecA = target: T2, Protein RecA (Mycobacterium tuberculosis, UniProt P9WHJ3); assay: Fluorescence Cell-Free Homogeneous Dose Retest to Identify Inhibitors of RecA-Intein Splicing Activity. [Related pubchem assays (depositor defined):AID2097, AID2223, AID489010, AID492950]; type: functional
# T2 sequence (P9WHJ3 whole entry): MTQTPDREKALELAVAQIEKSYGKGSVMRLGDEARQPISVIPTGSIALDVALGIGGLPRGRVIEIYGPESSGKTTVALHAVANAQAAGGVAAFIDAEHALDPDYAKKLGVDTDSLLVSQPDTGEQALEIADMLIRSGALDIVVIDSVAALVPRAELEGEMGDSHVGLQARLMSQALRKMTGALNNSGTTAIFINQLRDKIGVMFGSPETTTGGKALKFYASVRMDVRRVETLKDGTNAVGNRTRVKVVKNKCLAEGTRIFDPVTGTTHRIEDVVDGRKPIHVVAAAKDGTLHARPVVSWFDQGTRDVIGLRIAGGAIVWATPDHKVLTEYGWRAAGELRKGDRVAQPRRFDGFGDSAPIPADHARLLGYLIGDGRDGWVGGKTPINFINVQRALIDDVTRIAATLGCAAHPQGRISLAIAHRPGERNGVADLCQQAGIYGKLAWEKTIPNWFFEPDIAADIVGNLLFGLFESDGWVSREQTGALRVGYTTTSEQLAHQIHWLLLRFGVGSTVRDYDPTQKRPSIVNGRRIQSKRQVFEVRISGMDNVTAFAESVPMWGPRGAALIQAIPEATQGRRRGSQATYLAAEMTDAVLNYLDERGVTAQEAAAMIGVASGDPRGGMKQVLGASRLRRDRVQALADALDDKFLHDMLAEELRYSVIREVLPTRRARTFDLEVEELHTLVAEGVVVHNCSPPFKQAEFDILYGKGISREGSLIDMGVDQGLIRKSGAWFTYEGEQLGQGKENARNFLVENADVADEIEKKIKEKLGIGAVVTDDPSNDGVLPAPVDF
# Cytochrome P450 2C9 = Cytochrome P450 2C9 (Homo sapiens, UniProt P11712)
# Cytochrome P450 2C9, sequence (P11712 whole entry): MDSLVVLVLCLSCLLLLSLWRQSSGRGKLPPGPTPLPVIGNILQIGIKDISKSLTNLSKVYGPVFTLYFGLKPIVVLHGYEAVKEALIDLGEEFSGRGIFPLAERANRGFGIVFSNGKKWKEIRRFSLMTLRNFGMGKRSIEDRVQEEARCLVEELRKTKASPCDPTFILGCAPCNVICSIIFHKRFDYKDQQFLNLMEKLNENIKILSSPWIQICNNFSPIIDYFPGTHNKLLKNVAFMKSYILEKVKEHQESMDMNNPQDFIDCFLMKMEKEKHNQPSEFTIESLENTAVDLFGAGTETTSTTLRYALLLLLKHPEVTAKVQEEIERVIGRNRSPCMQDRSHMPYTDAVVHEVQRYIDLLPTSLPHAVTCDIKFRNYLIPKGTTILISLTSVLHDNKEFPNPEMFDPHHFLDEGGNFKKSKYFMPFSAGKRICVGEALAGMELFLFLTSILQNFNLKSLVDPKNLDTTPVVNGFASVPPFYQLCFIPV
# Cytochrome P450 3A4 = Cytochrome P450 3A4 (Homo sapiens, UniProt P08684);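 also: CYP3A4 tested as one member of a cytochrome P450 panel screen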
# Cytochrome P450 3A4, sequence (P08684 whole entry): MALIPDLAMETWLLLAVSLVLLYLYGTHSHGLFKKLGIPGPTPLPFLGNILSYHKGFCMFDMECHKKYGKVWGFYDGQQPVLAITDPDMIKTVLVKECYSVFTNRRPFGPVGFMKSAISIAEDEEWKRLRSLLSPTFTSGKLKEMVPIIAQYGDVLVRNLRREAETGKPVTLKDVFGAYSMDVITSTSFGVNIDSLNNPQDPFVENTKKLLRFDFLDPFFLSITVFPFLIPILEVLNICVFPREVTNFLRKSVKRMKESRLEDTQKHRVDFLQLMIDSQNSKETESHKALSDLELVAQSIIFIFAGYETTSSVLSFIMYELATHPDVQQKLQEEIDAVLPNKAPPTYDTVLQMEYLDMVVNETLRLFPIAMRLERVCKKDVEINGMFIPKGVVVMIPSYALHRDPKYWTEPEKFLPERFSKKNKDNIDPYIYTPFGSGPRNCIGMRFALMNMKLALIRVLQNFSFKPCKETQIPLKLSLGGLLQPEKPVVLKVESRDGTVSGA
# Cytochrome P450 2D6 = Cytochrome P450 2D6 (Homo sapiens, UniProt P10635);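 also: CYP2D6 member of a cytochrome P450 panel assay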
# Cytochrome P450 2D6, sequence (P10635 whole entry): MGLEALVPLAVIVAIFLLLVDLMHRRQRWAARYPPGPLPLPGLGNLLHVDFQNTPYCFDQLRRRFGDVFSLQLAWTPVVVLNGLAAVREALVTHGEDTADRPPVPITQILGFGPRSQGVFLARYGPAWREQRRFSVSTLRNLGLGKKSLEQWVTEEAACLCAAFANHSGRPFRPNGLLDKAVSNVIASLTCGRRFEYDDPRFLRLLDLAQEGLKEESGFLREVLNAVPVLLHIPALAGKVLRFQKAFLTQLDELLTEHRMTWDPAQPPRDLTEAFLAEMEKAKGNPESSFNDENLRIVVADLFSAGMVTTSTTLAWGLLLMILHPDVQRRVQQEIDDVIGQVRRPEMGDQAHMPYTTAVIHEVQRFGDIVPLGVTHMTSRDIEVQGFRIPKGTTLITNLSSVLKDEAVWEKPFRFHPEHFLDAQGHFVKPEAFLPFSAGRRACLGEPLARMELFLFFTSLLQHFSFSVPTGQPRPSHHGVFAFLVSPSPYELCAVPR
# Cytochrome P450 1A2 = target: T3, Cytochrome P450 1A2 (Homo sapiens, UniProt P05177);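 also: PubChem cytochrome P450 panel assay, CYP1A2 panel member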
# T3 sequence (P05177 whole entry): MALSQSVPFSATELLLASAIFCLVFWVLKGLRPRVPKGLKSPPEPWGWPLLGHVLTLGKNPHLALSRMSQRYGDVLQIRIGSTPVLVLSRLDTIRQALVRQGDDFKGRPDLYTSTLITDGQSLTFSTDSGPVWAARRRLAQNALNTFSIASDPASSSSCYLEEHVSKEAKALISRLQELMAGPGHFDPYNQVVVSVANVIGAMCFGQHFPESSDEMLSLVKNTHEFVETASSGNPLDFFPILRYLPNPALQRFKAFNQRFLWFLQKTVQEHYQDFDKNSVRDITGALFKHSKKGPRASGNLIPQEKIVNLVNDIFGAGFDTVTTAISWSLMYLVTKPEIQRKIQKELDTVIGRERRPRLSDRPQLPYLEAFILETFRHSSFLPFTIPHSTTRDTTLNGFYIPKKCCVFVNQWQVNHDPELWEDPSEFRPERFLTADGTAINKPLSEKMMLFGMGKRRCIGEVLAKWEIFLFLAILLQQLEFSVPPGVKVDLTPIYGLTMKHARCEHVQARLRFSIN
# Cytochrome P450 2C19 = Cytochrome P450 2C19 (Homo sapiens, UniProt P33261); assay: Cytochrome panel assay with activity outcomes. Panel member name: p450-cyp2c19 Compounds with AC50 equal or less than 10 uM are considered active; type: functional; details: read-out: AC50
# Cytochrome P450 2C19, sequence (P33261 whole entry): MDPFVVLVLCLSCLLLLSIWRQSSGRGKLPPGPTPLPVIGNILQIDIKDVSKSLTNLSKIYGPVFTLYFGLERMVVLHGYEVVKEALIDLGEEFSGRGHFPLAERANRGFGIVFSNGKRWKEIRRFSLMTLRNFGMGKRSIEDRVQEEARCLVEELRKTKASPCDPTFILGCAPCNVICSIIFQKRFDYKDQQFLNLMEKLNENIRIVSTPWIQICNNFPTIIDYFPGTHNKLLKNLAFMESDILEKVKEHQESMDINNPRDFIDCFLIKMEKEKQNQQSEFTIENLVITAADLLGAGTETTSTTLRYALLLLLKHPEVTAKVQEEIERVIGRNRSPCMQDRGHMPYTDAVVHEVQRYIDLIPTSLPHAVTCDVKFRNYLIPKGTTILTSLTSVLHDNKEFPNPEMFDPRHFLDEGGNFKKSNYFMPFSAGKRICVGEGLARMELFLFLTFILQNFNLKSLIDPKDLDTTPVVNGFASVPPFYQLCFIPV
structure (smiles),measurement,setting,value
CCOc1ccc(CNc2ccc(CNc3nc[nH]n3)cc2)cc1,CC50,[1],18 µM (active)
Cc1nn(-c2ccccc2)c2c1C(c1ccc(F)cc1)C(C#N)=C(N)O2 (centres undefined),AC50,[2],3.55 µM (active)
same,EC50,Protein RecA,2.93 µM (active)
N#Cc1cccc(-c2ccc3ncnc(NCc4ccccc4)c3c2)c1,AC50,Cytochrome P450 2C9,0.631 µM (inconclusive)
same,AC50,Cytochrome P450 3A4,15.8 µM (inconclusive)
same,AC50,Cytochrome P450 2D6,10 µM (inconclusive)
COc1ccc(-n2c(C)cc(C=O)c2C)cc1Cl,AC50,Cytochrome P450 2C9,17.8 µM (inconclusive)
same,AC50,Cytochrome P450 1A2,14.1 µM (inconclusive)
same,AC50,Cytochrome P450 2C19,3.98 µM (inconclusive)
COc1cc(C(=O)NCC(c2cccnc2)N2CCN(C)CC2)cc(OC)c1OC (centres undefined),AC50,Cytochrome P450 2C19,39.8 µM (inconclusive)
C=CCn1c(SCC(=O)Nc2ncc(Cc3ccc(Br)cc3)s2)nnc1-c1ccncc1,AC50,Cytochrome P450 2C19,2.82 µM (inconclusive)
Cc1n[nH]c2c1C(c1cccc(OC(=O)N3CCOCC3)c1)C(C#N)=C(N)O2 (centres undefined),AC50,[2],31.2 µM (active)
same,EC50,Protein RecA,7.44 µM (active)
O=C(CCl)Nc1ccc(N=Nc2ccccc2)cc1,AC50,[2],6.81 µM (active)
same,EC50,Protein RecA,2.18 µM (active)
CCOC(=O)c1c(C)[nH]c(C(=O)/C(C#N)=C/c2ccc(OC)c(OC)c2)c1C,CC50,[1],> 50 µM (active)
Cc1nn(Cc2ccc([N+](=O)[O-])cc2)c(=O)n1-c1cccc(F)c1,AC50,Cytochrome P450 1A2,17.8 µM (inconclusive)
same,AC50,Cytochrome P450 2D6,25.1 µM (inconclusive)
Cc1cc(-n2nnc3ccccc32)nc2ccccc12,CC50,[1],19.1 µM (active)
COc1ccc(C2C(C#N)=C(N)Oc3[nH]nc(C)c32)cc1Cn1nnc2ccccc21 (centres undefined),AC50,[2],7.76 µM (active)
same,EC50,Protein RecA,3.87 µM (active)
N=C(NOC(=O)Cc1ccc(Cl)cc1)c1cccnc1,AC50,Cytochrome P450 2C9,12.6 µM (inconclusive)
same,AC50,Cytochrome P450 2D6,6.31 µM (inconclusive)
COc1ccc(OC)c(N2C(=O)C(Cl)=C(N3CCCCC3)C2=O)c1,AC50,[2],11.8 µM (active)
same,EC50,Protein RecA,4.67 µM (active)
CNc1ncncc1-c1ccccc1C,AC50,Cytochrome P450 1A2,12.6 µM (inconclusive)
same,AC50,Cytochrome P450 2D6,31.6 µM (inconclusive)
CC(=O)C1=C(O)[C@@H]2[C@@H]3c4c[nH]c5cccc(c45)C[C@@H]3C(C)(C)N2C1=O,AC50,Cytochrome P450 3A4,10 µM (inconclusive)
same,AC50,Cytochrome P450 1A2,12.6 µM (inconclusive)
same,AC50,Cytochrome P450 2D6,39.8 µM (inconclusive)
CCN1C=C(Cc2ccccc2C)C2=C(C1)C(c1ccccc1C)C(C#N)=C(N)O2 (centres undefined),CC50,[1],13.1 µM (active)
Cc1ccc(NC(=O)CN2C(=O)NC(C)(c3ccc(Cl)cc3)C2=O)c(Br)c1 (centres undefined),CC50,[1],30.1 µM (active)
CCOC(=O)CN1C(=O)N[C@@H](c2cccc(C(F)(F)F)c2)C(C(C)=O)=C1C,AC50,[2],> 380 µM (inactive)
same,EC50,Protein RecA,> 380 µM (inactive)
